Reference: patent publication US12384800B2, “Antitumoral compounds” (priority 2017, dated 2025)

Columns and labels:
[1] = MTMD (Maximum Tolerated Multiple Dose) determination, iv weekly x 3; type: in vivo; details: mice; iv/Q7d × 3
From the text: Female CD-1 or Athymic Nude-Fox1 nu/nu mice (Envigo) were utilized for all experiments. […] Animals were acclimated for five days prior to being individually tattoo-identified. Animal protocols were reviewed and approved according to the regional Institutional Animal Care and Use Committees.
Mice were randomly allocated into experimental groups and intravenously administered, once for the MTD (Maximum Tolerated Dose) determination or one administration a week during three consecutive weeks, for the MTMD (Maximum Tolerated Multiple Dose) determination study. The animals were administered with white formulation or with compound dissolved in the experimental formulation at different concentrations. The volume administered was always […]. Once administered, animals were monitored for clinical signs of systemic toxicity, changes in body weight and mortality up to 14 days after the administration.

[2] = test system: HT29 cells (colorectal adenocarcinoma); assay: cells; details: HT29, SRB
From the text: (§1) The aim of this assay is to evaluate the in vitro cytostatic (ability to delay or arrest tumor cell growth) or cytotoxic (ability to kill tumor cells) activity of the samples being tested.
(§2) A colorimetric assay, using sulforhodamine B (SRB) reaction has been adapted to provide a quantitative measurement of cell growth and viability (following the technique described by Skehan et al. J. Natl. Cancer Inst. 1990, 82, 1107-1112). Another colorimetric assay based on 3-(4,5-Dimethylthiazol-2-yl)-2,5-diphenyltetrazolium bromide (MTT) reduction to a purple formazan has been also used to assess the antiproliferative activity (following the technique described by Mosmann et al. J. Immunol. Meth. 1983, 65, 55-63).
(§3) These forms of assays employ 96-well cell culture microplates following the standards of the American National Standards Institute and the Society for Laboratory Automation and Screening (ANSI SLAS 1-2004 (R2012) Oct. 12, 2011. All the cell lines used in this study were obtained from the American Type Culture Collection (ATCC) and derive from different types of human cancer.
(§4) A549, HT29, MDA-MB-231 and PSN1 cells were maintained in Dulbecco's Modified Eagle Medium (DMEM) while PC-3 and 22Rv1 cells were maintained in Roswell Park Memorial Institute Medium (RPMI). All cell lines were supplemented with 10% Fetal Bovine Serum (FBS), 2 mM L-glutamine, 100 U/mL penicillin, and 100 […] at 37° C., 5% CO2 and 98% humidity. For the experiments, cells were harvested from subconfluent cultures using trypsinization and resuspended in fresh medium before counting and plating.
(§5) A549, HT29, MDA-MB-231 and PSN1 cells were seeded in 96 well microtiter plates, at 5000 cells per well in aliquots of 150 μL, and allowed to attach to the plate surface for 18 hours (overnight) in drug free medium. After that, one control (untreated) plate of each cell line was fixed (as described below) and used for time zero reference value. Culture plates were then treated with test compounds (50 μL aliquots of 4× stock solutions in complete culture medium plus 4% DMSO) using ten ⅖ serial dilutions (concentrations ranging from 10 to 0.003 μg/mL) and triplicate cultures (1% final concentration in DMSO). After 72 hours treatment, the antitumor effect was measured by using the SRB methodology: Briefly, cells were washed twice with PBS, fixed for 15 min in 1% glutaraldehyde solution at room temperature, rinsed twice in PBS, and stained in 0.4% SRB solution for 30 min at room temperature. Cells were then rinsed several times with 1% acetic acid solution and air-dried at room temperature.
(§6) Effects on cell growth and survival were estimated by applying the NCI algorithm (Boyd M R and Paull K D. Drug Dev. Res. 1995, 34, 91-104). The values obtained in triplicate cultures were fitted by nonlinear regression to a four-parameters logistic curve by nonlinear regression analysis.

[3] = test system: A549 cells (lung carcinoma, NSCLC); assay: cells; details: A549, SRB
From the text: as §1, §2, §3, §4, §5, §6

[4] = test system: PSN1 cells (pancreas adenocarcinoma); assay: cells; details: PSN1, SRB
From the text: as §1, §2, §3, §4, §5, §6

[5] = test system: MDA-MB-231 cells (breast adenocarcinoma); assay: cells; details: MDA-MB-231, SRB
From the text: as §1, §2, §3, §4, §5, §6

[6] = test system: HT1080 tumors; assay: Human fibrosarcoma xenograft, total diameter (tumor + leg)
Experimental: (§7) Female athymic nu/nu mice (Harlan Laboratories Models, S.L. Barcelona, Spain or Envigo, Spain) were utilized for all experiments. Animal were housed in individually ventilated cages Sealsafe® Plus, Techniplast S.P.A.), up to ten per cage on a 12-hour light-dark cycle at 21-23° C. and 40-60% humidity. […] Animals were acclimated for at least 5 days prior to tumor implantation with a tumor cell suspension.
HT1080 cells were maintained in vitro at 37° C. with 5% CO2 in Minimum Essential Medium Eagle (MEME) (Sigma-Aldrich, Co). Each animal was orthotopically implanted into gastroecnemius muscle by an intramuscular injection using a 26G needle and a 1 cc syringe at 4-6 weeks of age, with 10×10^6 HT1080 cells, suspended in serum free medium, without antibiotics.
(§8) Treatment tolerability was assessed by monitoring body weight evolution, clinical signs of systemic toxicity, as well as evidences of local damage in the injection site.
In xenograft studies with HT1080 cell line: • Total diameter (tumor+leg) measurements were determined by using digital caliper (Fowler Sylvac, S235PAT).
(§9) Treatments producing >20% lethality and/or 20% net body weight loss were considered toxic.

[7] = test system: H460 tumors; assay: Human lung (NSCLC) xenograft, tumor volume; details: iv Days 0, 7 and 14, compound C 3.0 mg/kg, 4-S […], 12-S […]
Experimental: as §7
H460 cells were maintained in vitro at 37° C. with 5% CO2 in Dulbecco's Modified Eagle's Medium (Sigma-Aldrich, Co). Culture cells were passaged every 3 to 5 days upon reaching confluence. Each animal was subcutaneously implanted (on the right flank using 26G needle and a 1 cc syringe) at 4-6 weeks of age with 5×10^6 H460 cells suspended in 0.05 mL of a solution consisting of 50% Matrigel® (Corning Incorporated Life Sciences) and 50% medium without serum or antibiotics.
as §8
(§10) In Xenograft Studies with Other Cell Lines: • Tumor volume was calculated using the equation (a·b^2)/2, where a: length (longest diameter) and b: width (shortest diameter) were measured in mm by using digital caliper (Fowler Sylvac, S235PAT).
as §9
Tables and figures summarize the data obtained from complete experimental groups, i.e. those groups keeping the initial number of animals, n=8-10.

[8] = test system: A2780 tumors; assay: Human ovarian xenograft, tumor volume; details: iv Days 0, 7 and 14, compound C 3.0 mg/kg, 4-S […], 12-S […]
Experimental: as §7
Culture cells were passaged every 3 to 5 days upon reaching confluence. Each animal was subcutaneously implanted (on the right flank using 26G needle and a 1 cc syringe) at 4-6 weeks of age with 10×10^6 A2780 cells suspended in 0.05 mL of a solution consisting of 50% Matrigel® (Corning Incorporated Life Sciences) and 50% medium without serum or antibiotics.
as §8, §10, §9

[9] = test system: MDA-MB-231 tumors; assay: Human breast xenograft, tumor volume; details: iv Days 0, 7 and 14, compound C 3.0 mg/kg, 4-S […], 12-S […]
Experimental: as §7
MDA-MB-231 cells were maintained in vitro at 37° C. with 5% CO2 in Dulbecco's Modified Eagle's Medium (Sigma-Aldrich, Co). Culture cells were passaged every 3 to 5 days upon reaching confluence.
as §8, §10, §9

[10] = test system: HGC27 tumors; assay: Human gastric xenograft, tumor volume; details: iv Days 0, 7 and 14, compound C 3.0 mg/kg, 4-S […], 12-S […]
Experimental: as §7
HGC27 cells were maintained in vitro at 37° C. with 5% CO2 in Iscove's Modified Dulbecco's Medium (Sigma Aldrich, Co). Culture cells were passage every 3 to 5 days on reaching confluence. Each animal was subcutaneously implanted (on the right flank using 26G needle and a 1 cc syringe) at 4-6 weeks of age with 5×10^6 HGC-27 cells suspended in 0.05 mL of a solution consisting of 50% Matrigel® (Corning Incorporated Life Sciences), 50% medium without serum or antibiotics.
as §8, §10, §9

[11] = total cell growth inhibition, 72 hours
[12] = read-out: LC50, 50% net cell killing, 72 hours
[13] = Day 2.0, iv Days 0, 7 and 14, compound C 3.0 mg/kg, 4-S […], 12-S […]
[14] = Day 5.0, iv Days 0, 7 and 14, compound C 3.0 mg/kg, 4-S […], 12-S […]
[15] = Day 7.0, iv Days 0, 7 and 14, compound C 3.0 mg/kg, 4-S […], 12-S […]
[16] = Day 9.0, iv Days 0, 7 and 14, compound C 3.0 mg/kg, 4-S […], 12-S […]
[17] = Day 12.0, iv Days 0, 7 and 14, compound C 3.0 mg/kg, 4-S […], 12-S […]
[18] = Day 14.0, iv Days 0, 7 and 14, compound C 3.0 mg/kg, 4-S […], 12-S […]
[19] = Day 16.0, iv Days 0, 7 and 14, compound C 3.0 mg/kg, 4-S […], 12-S […]
[20] = Day 19.0, iv Days 0, 7 and 14, compound C 3.0 mg/kg, 4-S […], 12-S […]
[21] = Day 21.0, iv Days 0, 7 and 14, compound C 3.0 mg/kg, 4-S […], 12-S […]
[22] = Day 23.0, iv Days 0, 7 and 14, compound C 3.0 mg/kg, 4-S […], 12-S […]

Which MTMD [1] does the source give for `COc1ccc2oc3c(c2c1)CCN[C@]31CS[C@@H]2c3c(OC(C)=O)c(C)c4c(c3[C@H](COC1=O)N1[C@@H]2[C@H]2c3c(cc(C)c(OC)c3O)C[C@@H]([C@@H]1O)N2C)OCO4` [Compound 35] here?
The MTMD was 0.25 mg/kg.

For `COc1c(C)cc2c(c1O)[C@@H]1[C@@H]3[C@@H]4SC[C@]5(N[C@H](C)Cc6c5[nH]c5ccccc65)C(=O)OC[C@@H](c5c6c(c(C)c(OC(C)=O)c54)OCO6)N3[C@@H](O)[C@H](C2)N1C` [Compound C], which GI50 ([2]; 72 hours treatment) is on record?
The GI50 was 20.8 nM.

What about the TGI [2, 11] of the same molecule?
The TGI was 2.34E−08 Molar.

What about the CC50 [2, 12] of the same molecule?
The CC50 was > 130 nM.

And the GI50 ([3]; 72 hours treatment)?
The GI50 was 27.3 nM.

What about the TGI [3, 11] of the same molecule?
Its TGI is 6.63E−08 Molar.

What about the CC50 [3, 12] of the same molecule?
Its CC50 is > 130 nM.

And the GI50 ([4]; 72 hours treatment)?
Its GI50 is 36.4 nM.

And the TGI [4, 11]?
Its TGI is 4.42E−08 Molar.

And the CC50 [4, 12]?
The CC50 was 65 nM.

And the GI50 ([5]; 72 hours treatment)?
The GI50 was 26 nM.

What about the TGI [5, 11] of the same molecule?
Its TGI is 5.46E−08 Molar.

What about the CC50 [5, 12] of the same molecule?
Its CC50 is > 130 nM.

What about the MTMD [1] of the same molecule?
The MTMD was 3.0 mg/kg.

What about the “Total diameter (tumor + leg)” value ([6]; Day 0) of the same molecule?
Its value is 7.5 mm.

What about the “Total diameter (tumor + leg)” value ([6]; Day 0.0, iv Days 0, 7 and 14, compound C 3.0 mg/kg, 4-S […], 12-S […]) of the same molecule?
Its value is 7.5 mm.

And the “Total diameter (tumor + leg)” value ([6]; Day 2)?
Its value is 8.8 mm.

And the “Total diameter (tumor + leg)” value [6, 13]?
The value was 8.8 mm.

And the “Total diameter (tumor + leg)” value ([6]; Day 5)?
Its value is 9.0 mm.

And the “Total diameter (tumor + leg)” value [6, 14]?
The value was 9.0 mm.

What about the “Total diameter (tumor + leg)” value ([6]; Day 7) of the same molecule?
Its value is 9.6 mm.

And the “Total diameter (tumor + leg)” value [6, 15]?
The value was 9.6 mm.

And the “Total diameter (tumor + leg)” value ([6]; Day 9)?
Its value is 10.2 mm.

And the “Total diameter (tumor + leg)” value [6, 16]?
The value was 10.2 mm.

And the “Total diameter (tumor + leg)” value ([6]; Day 12)?
Its value is 10.2 mm.

And the “Total diameter (tumor + leg)” value [6, 17]?
The value was 10.2 mm.

What about the “Total diameter (tumor + leg)” value ([6]; Day 14) of the same molecule?
The value was 11.2 mm.

What about the “Total diameter (tumor + leg)” value [6, 18] of the same molecule?
Its value is 11.2 mm.

And the “Total diameter (tumor + leg)” value ([6]; Day 16)?
The value was 12.4 mm.

What about the “Total diameter (tumor + leg)” value [6, 19] of the same molecule?
The value was 12.4 mm.

And the “Total diameter (tumor + leg)” value ([6]; Day 19)?
Its value is 13.3 mm.

What about the “Total diameter (tumor + leg)” value [6, 20] of the same molecule?
Its value is 13.3 mm.

What about the “Total diameter (tumor + leg)” value ([6]; Day 21) of the same molecule?
Its value is 15.2 mm.

What about the “Total diameter (tumor + leg)” value [6, 21] of the same molecule?
Its value is 15.2 mm.

What about the “Total diameter (tumor + leg)” value ([6]; Day 23) of the same molecule?
Its value is 18.0 mm.

And the “Total diameter (tumor + leg)” value [6, 22]?
The value was 18.0 mm.

For `COc1c(C)cc2c(c1O)[C@@H]1[C@@H]3[C@@H]4SC[C@]5(N[C@H](CN)Cc6c5[nH]c5ccccc65)C(=O)OC[C@@H](c5c6c(c(C)c(OC(C)=O)c54)OCO6)N3[C@@H](O)[C@H](C2)N1C` [Compound 12-S], which “Total diameter (tumor + leg)” value [6, 13] is on record?
The value was 8.2 mm.

And the “Total diameter (tumor + leg)” value [6, 14]?
Its value is 8.6 mm.

And the “Total diameter (tumor + leg)” value [6, 15]?
The value was 9.5 mm.

And the “Total diameter (tumor + leg)” value [6, 16]?
The value was 10.0 mm.

What about the “Total diameter (tumor + leg)” value [6, 17] of the same molecule?
The value was 11.2 mm.

What about the “Total diameter (tumor + leg)” value [6, 18] of the same molecule?
Its value is 11.7 mm.

What about the “Total diameter (tumor + leg)” value [6, 19] of the same molecule?
Its value is 12.7 mm.

And the “Total diameter (tumor + leg)” value [6, 20]?
Its value is 13.5 mm.

What about the “Total diameter (tumor + leg)” value [6, 21] of the same molecule?
The value was 14.4 mm.

And the “Total diameter (tumor + leg)” value [6, 22]?
The value was 16.5 mm.

What about the “Median Tumor Volume” value ([7]; Day 2.0) of the same molecule?
Its value is 460.5 mm^3.

What about the “Median Tumor Volume” value ([7]; Day 5.0) of the same molecule?
The value was 922.4 mm^3.

And the “Median Tumor Volume” value ([7]; Day 7.0)?
The value was 1252.1 mm^3.

And the “Median Tumor Volume” value ([7]; Day 9.0)?
The value was 1409.4 mm^3.

And the “Median Tumor Volume” value ([7]; Day 12.0)?
The value was 1531.7 mm^3.

What about the “Median Tumor Volume” value ([8]; Day 2.0) of the same molecule?
The value was 262.1 mm^3.

What about the “Median Tumor Volume” value ([8]; Day 5.0) of the same molecule?
The value was 628.6 mm^3.

And the “Median Tumor Volume” value ([8]; Day 7.0)?
Its value is 976.3 mm^3.

And the “Median Tumor Volume” value ([8]; Day 9.0)?
The value was 1387.5 mm^3.

What about the “Median Tumor Volume” value ([8]; Day 12.0) of the same molecule?
The value was 1666.0 mm^3.

And the “Median Tumor Volume” value ([9]; Day 2.0)?
The value was 229.9 mm^3.

What about the “Median Tumor Volume” value ([9]; Day 5.0) of the same molecule?
The value was 290.5 mm^3.

What about the “Median Tumor Volume” value ([9]; Day 7.0) of the same molecule?
Its value is 398.2 mm^3.

And the “Median Tumor Volume” value ([9]; Day 9.0)?
Its value is 508.9 mm^3.

What about the “Median Tumor Volume” value ([9]; Day 12.0) of the same molecule?
Its value is 602.5 mm^3.

What about the “Median Tumor Volume” value ([9]; Day 14.0) of the same molecule?
The value was 751.0 mm^3.

What about the “Median Tumor Volume” value ([9]; Day 16.0) of the same molecule?
The value was 977.7 mm^3.

What about the “Median Tumor Volume” value ([9]; Day 19.0) of the same molecule?
The value was 1252.6 mm^3.

And the “Median Tumor Volume” value ([9]; Day 21.0)?
Its value is 1560.7 mm^3.

What about the “Median Tumor Volume” value ([9]; Day 23.0) of the same molecule?
Its value is 2005.9 mm^3.

What about the “Median Tumor Volume” value ([9]; Day 26.0) of the same molecule?
The value was 2066.2 mm^3.

What about the “Median Tumor Volume” value ([10]; Day 2.0) of the same molecule?
The value was 411.9 mm^3.

And the “Median Tumor Volume” value ([10]; Day 5.0)?
Its value is 834.1 mm^3.

And the “Median Tumor Volume” value ([10]; Day 7.0)?
Its value is 1176.6 mm^3.

And the “Median Tumor Volume” value ([10]; Day 9.0)?
Its value is 1531.6 mm^3.

What about the “Median Tumor Volume” value ([10]; Day 12.0) of the same molecule?
Its value is 2030.2 mm^3.
